In PMC8550792, “Evolution of kinase polypharmacology across HSP90 drug discovery” (Cell Chemical Biology, 2021):

How the values were obtained:
Test in all cases: biochemical
Type in all cases: biochemical
382 unique human kinases [1] = target: T1, 382 unique human kinases (Homo sapiens, UniProt P16234, T674I); settings: PDGFRa (T674I), [ATP] 20 µM, compound 10 uM; for remaining activity at 10 µM: read-out: % Enzyme Activity (relative to DMSO controls)
T1 construct: purchased Reaction Biology (HotSpot contract assay)

382 unique human kinases [2] = target: T2, 382 unique human kinases (Homo sapiens, UniProt Q14680, T460M); settings: MELK (T460M), [ATP] 20 µM, compound 10 uM; for remaining activity at 10 µM: read-out: % Enzyme Activity (relative to DMSO controls)
T2 construct: purchased Reaction Biology (HotSpot contract assay)
T2 sequence (Q14680 whole entry T460M): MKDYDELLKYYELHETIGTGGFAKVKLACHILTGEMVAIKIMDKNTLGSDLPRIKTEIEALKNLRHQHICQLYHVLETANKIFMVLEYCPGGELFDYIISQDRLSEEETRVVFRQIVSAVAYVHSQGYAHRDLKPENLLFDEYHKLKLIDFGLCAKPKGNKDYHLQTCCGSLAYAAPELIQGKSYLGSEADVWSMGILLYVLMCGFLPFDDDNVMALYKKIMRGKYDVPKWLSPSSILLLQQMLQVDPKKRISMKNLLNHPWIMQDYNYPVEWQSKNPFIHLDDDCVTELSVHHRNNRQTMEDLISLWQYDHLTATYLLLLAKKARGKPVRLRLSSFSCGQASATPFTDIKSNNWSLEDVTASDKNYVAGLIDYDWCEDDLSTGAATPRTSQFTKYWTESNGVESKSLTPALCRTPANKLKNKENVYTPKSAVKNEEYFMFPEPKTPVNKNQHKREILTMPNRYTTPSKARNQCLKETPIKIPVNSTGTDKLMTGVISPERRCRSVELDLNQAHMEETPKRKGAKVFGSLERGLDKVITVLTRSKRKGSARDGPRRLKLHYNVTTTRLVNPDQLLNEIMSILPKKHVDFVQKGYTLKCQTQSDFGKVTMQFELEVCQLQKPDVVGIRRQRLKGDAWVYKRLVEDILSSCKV

382 unique human kinases [3] = target: T3, 382 unique human kinases (Homo sapiens, UniProt Q04912); settings: RON/MST1R, 10 uM; for remaining activity at 10 µM: read-out: % Enzyme Activity (relative to DMSO controls)
T3 construct: purchased Reaction Biology (HotSpot contract assay)

382 unique human kinases [4] = target: T4, 382 unique human kinases (Homo sapiens, UniProt P08581, V1092I); settings: c-MET (V1092I), 10 uM; for remaining activity at 10 µM: read-out: % Enzyme Activity (relative to DMSO controls)
T4 construct: purchased Reaction Biology (HotSpot contract assay)

382 unique human kinases [5] = target: T5, 382 unique human kinases (Homo sapiens, UniProt Q16654); settings: PDK4/PDKH4, [ATP] 30 µM
T5 construct: purchased Reaction Biology (HotSpot contract assay)
T5 sequence (Q16654 whole entry): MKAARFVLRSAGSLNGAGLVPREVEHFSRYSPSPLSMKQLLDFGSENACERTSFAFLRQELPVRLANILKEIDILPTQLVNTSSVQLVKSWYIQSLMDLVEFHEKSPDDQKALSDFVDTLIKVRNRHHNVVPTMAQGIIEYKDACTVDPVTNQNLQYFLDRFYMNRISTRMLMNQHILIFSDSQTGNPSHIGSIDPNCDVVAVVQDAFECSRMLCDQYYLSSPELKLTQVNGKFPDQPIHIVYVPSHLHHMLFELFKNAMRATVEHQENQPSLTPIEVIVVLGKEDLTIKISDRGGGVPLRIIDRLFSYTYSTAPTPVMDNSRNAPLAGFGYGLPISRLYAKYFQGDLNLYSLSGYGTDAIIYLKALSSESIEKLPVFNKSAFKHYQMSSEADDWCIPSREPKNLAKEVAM

382 unique human kinases [6] = target: T6, 382 unique human kinases (Homo sapiens, UniProt Q5TCX8); settings: MLK4, 10 uM; for remaining activity at 10 µM: read-out: % Enzyme Activity (relative to DMSO controls)
T6 construct: purchased Reaction Biology (HotSpot contract assay)
T6 sequence (Q5TCX8 whole entry): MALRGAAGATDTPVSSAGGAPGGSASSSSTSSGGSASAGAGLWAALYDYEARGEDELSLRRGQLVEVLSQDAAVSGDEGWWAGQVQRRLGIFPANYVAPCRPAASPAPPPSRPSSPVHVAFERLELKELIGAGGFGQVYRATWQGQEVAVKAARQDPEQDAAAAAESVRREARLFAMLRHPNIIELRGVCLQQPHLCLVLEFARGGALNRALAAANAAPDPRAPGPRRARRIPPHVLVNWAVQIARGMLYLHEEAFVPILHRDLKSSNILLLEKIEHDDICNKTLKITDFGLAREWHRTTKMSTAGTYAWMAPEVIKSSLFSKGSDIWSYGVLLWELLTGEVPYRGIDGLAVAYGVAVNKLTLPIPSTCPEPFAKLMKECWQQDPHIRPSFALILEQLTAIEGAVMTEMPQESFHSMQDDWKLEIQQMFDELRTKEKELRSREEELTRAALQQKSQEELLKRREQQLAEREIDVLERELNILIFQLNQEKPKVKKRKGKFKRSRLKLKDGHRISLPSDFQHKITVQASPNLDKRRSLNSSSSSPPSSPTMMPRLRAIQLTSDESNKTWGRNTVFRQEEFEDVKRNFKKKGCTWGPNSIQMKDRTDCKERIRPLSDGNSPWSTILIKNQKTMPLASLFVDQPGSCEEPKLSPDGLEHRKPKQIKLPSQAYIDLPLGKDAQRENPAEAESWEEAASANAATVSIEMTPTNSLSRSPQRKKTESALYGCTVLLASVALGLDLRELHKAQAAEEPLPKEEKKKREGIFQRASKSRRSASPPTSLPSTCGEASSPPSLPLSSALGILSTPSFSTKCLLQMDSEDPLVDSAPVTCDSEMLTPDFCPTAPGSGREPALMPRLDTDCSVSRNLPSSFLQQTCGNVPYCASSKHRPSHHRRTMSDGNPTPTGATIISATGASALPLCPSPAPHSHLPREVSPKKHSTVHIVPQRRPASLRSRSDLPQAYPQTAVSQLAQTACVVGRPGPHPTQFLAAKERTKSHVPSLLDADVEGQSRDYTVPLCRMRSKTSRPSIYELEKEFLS

382 unique human kinases [7] = target: T7, 382 unique human kinases (Homo sapiens, UniProt P07949, V804E); settings: RET (V804E), 10 uM; for remaining activity at 10 µM: read-out: % Enzyme Activity (relative to DMSO controls)
T7 construct: purchased Reaction Biology (HotSpot contract assay)
T7 sequence (P07949 29-1114 V804E): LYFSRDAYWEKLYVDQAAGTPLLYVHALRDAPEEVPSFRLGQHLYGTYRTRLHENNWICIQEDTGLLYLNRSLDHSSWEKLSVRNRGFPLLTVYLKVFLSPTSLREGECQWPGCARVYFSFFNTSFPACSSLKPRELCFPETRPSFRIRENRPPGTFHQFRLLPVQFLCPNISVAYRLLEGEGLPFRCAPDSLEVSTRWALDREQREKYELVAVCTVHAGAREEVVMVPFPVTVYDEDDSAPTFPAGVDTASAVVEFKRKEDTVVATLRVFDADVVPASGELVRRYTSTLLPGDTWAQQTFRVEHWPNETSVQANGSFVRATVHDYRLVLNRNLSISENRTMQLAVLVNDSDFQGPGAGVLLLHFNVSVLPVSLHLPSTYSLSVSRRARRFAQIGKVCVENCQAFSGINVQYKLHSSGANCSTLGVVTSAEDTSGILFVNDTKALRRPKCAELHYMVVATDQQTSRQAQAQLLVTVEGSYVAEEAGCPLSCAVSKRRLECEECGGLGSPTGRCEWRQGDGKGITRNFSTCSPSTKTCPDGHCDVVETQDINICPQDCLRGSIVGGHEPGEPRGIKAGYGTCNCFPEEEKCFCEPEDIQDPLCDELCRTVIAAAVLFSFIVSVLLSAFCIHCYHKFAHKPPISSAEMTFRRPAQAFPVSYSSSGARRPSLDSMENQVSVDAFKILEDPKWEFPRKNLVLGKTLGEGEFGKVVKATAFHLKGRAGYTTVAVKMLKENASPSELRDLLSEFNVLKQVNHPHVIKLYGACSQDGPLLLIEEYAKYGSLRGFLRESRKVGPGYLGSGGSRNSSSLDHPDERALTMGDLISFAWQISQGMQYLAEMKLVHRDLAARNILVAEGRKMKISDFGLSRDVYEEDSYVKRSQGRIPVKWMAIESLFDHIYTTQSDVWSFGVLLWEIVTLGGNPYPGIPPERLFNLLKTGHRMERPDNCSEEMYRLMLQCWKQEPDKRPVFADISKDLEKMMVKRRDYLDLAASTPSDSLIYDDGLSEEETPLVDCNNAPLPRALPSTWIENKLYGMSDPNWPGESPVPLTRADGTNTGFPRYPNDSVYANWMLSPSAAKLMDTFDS

382 unique human kinases [8] = target: T8, 382 unique human kinases (Homo sapiens, UniProt O94921); settings: CDK14/cyclin Y (PFTK1), 10 uM; for remaining activity at 10 µM: read-out: % Enzyme Activity (relative to DMSO controls)
T8 construct: purchased Reaction Biology (HotSpot contract assay)
T8 sequence (O94921 whole entry): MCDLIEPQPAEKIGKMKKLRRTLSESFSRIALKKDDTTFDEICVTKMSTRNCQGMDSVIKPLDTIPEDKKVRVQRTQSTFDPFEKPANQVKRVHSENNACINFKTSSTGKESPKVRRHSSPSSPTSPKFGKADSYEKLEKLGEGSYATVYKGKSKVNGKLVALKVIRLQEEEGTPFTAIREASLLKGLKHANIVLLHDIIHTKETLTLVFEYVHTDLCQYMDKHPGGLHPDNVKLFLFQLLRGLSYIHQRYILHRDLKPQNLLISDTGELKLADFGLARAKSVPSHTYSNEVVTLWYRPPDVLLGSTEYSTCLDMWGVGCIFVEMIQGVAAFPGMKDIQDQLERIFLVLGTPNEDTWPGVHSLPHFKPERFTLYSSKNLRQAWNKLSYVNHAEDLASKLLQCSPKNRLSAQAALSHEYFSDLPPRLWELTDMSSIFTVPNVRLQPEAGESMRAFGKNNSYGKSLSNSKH

382 unique human kinases [9] = target: T9, 382 unique human kinases (Homo sapiens, UniProt O14757); settings: CHK1, 10 uM; for remaining activity at 10 µM: read-out: % Enzyme Activity (relative to DMSO controls)
T9 construct: purchased Reaction Biology (HotSpot contract assay)
T9 sequence (O14757 1-476): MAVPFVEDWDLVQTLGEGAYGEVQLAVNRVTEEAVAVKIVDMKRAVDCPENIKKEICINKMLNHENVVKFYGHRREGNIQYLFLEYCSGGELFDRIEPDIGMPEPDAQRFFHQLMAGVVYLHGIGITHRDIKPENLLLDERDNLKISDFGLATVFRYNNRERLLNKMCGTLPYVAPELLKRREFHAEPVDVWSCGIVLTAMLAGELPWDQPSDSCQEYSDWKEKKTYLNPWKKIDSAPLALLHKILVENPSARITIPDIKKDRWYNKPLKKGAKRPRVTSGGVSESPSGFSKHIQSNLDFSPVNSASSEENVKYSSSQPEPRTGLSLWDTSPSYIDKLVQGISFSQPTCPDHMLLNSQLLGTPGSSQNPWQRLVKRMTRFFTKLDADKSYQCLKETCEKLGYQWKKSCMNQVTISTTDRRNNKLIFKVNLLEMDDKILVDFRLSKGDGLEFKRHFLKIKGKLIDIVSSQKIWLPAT

382 unique human kinases [10] = target: T10, 382 unique human kinases (Homo sapiens, UniProt O43781); settings: DYRK3, 10 uM; for remaining activity at 10 µM: read-out: % Enzyme Activity (relative to DMSO controls)
T10 construct: purchased Reaction Biology (HotSpot contract assay)
T10 sequence (O43781 1-588): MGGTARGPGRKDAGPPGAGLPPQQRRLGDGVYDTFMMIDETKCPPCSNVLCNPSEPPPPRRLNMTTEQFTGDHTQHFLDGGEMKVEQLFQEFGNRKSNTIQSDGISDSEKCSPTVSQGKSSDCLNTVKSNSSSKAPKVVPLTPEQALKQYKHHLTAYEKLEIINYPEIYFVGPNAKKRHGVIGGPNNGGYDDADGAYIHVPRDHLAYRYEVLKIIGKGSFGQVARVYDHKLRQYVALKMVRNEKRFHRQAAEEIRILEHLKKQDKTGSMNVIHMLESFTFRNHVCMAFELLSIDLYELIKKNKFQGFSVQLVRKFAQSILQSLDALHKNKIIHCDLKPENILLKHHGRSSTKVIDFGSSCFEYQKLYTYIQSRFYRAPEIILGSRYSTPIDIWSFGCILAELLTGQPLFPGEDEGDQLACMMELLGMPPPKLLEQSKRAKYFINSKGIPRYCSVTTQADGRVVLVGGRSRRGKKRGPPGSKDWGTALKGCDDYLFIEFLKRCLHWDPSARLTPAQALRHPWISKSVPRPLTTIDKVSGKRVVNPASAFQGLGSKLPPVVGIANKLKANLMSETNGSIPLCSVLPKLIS

382 unique human kinases [11] = target: T11, 382 unique human kinases (Homo sapiens, UniProt Q8NEV4); settings: MYO3A, 10 uM; for remaining activity at 10 µM: read-out: % Enzyme Activity (relative to DMSO controls)
T11 construct: purchased Reaction Biology (HotSpot contract assay)

382 unique human kinases [12] = target: T12, 382 unique human kinases (Homo sapiens, UniProt O96017, I157T); settings: CHK2 (I157T), 10 uM; for remaining activity at 10 µM: read-out: % Enzyme Activity (relative to DMSO controls)
T12 construct: purchased Reaction Biology (HotSpot contract assay)
T12 sequence (O96017 whole entry I157T): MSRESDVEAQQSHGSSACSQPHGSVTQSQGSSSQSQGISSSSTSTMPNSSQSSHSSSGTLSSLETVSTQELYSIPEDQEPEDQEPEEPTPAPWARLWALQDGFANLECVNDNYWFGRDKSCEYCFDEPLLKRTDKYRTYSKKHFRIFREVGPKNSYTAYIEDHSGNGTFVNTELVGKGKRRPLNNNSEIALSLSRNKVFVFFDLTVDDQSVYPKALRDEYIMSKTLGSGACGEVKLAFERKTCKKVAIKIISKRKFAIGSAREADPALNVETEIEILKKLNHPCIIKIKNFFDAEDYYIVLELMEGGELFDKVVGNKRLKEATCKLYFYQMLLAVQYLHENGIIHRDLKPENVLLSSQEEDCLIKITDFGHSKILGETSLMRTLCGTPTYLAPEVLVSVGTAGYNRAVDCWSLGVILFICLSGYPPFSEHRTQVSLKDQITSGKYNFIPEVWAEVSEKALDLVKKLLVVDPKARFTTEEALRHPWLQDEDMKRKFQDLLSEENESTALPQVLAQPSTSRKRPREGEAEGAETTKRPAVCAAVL

382 unique human kinases [13] = target: T13, 382 unique human kinases (Homo sapiens, UniProt Q04771); settings: ALK2/ACVR1, compound at 10 uM, duplicate values; for remaining activity at 10 µM: read-out: % Enzyme Activity (relative to DMSO controls)
T13 construct: purchased Reaction Biology (HotSpot contract assay)
T13 sequence (Q04771 21-509): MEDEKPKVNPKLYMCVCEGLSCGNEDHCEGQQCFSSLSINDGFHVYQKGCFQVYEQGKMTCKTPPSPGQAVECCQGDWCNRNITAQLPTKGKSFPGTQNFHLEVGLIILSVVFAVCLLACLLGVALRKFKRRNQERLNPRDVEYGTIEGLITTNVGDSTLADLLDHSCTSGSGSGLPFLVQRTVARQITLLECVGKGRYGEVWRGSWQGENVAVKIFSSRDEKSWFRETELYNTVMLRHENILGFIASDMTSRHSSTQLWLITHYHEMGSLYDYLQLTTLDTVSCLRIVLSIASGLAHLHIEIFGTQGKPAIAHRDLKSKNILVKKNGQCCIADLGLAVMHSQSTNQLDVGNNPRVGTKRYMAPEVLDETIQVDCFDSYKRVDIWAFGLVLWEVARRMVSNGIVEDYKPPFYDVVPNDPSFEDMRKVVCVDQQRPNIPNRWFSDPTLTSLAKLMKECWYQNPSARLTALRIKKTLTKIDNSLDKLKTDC

382 unique human kinases [14] = target: T14, 382 unique human kinases (Homo sapiens, UniProt Q13557); settings: CAMK2d, 10 uM; for remaining activity at 10 µM: read-out: % Enzyme Activity (relative to DMSO controls)
T14 construct: purchased Reaction Biology (HotSpot contract assay)
T14 sequence (Q13557 whole entry): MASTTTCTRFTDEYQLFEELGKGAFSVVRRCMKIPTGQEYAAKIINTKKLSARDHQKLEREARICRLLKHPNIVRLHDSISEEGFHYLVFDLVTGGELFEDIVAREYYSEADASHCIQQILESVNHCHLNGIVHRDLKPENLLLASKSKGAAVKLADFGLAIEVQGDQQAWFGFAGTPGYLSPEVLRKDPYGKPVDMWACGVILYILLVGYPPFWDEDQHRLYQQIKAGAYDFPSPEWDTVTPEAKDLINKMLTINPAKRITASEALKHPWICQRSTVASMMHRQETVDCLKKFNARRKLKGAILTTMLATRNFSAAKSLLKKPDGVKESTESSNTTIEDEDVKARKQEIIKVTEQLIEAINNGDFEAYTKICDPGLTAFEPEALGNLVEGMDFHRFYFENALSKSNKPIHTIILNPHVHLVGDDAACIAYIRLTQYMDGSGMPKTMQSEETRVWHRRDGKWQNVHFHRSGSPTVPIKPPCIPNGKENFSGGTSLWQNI

382 unique human kinases [15] = target: T15, 382 unique human kinases (Homo sapiens, UniProt O95747); settings: kinase OSR1/OXSR1, compound 10 uM; for remaining activity at 10 µM: read-out: % Enzyme Activity (relative to DMSO controls)
T15 construct: purchased Reaction Biology (HotSpot contract assay)

382 unique human kinases [16] = target: T16, 382 unique human kinases (Homo sapiens, UniProt P00533, L747S); settings: kinase EGFR (L747S), compound 10 uM; for remaining activity at 10 µM: read-out: % Enzyme Activity (relative to DMSO controls)
T16 construct: purchased Reaction Biology (HotSpot contract assay)

[17] = compound 10 uM, read-out: % Enzyme Activity (relative to DMSO controls)

CCNC(=O)c1noc(-c2cc(C(C)C)c(O)cc2O)c1-c1ccc(CN2CCOCC2)cc1 [Luminespib]
% Enzyme Activity (relative to DMSO controls) (382 unique human kinases [1]): 89.59% | remaining activity at 10 µM (382 unique human kinases [1]): 91.6% | % Enzyme Activity (relative to DMSO controls) (382 unique human kinases [2]): 72.49% | remaining activity at 10 µM (382 unique human kinases [2]): 74.9% | % Enzyme Activity (relative to DMSO controls) (382 unique human kinases [3]): 94.46% | remaining activity at 10 µM (382 unique human kinases [3]): 100% | % Enzyme Activity (relative to DMSO controls) (382 unique human kinases [4]): 95.91% | remaining activity at 10 µM (382 unique human kinases [4]): 97.2% | % Enzyme Activity (relative to DMSO controls) (382 unique human kinases [5]; compound 10 uM): 27.75% | remaining activity at 10 µM (382 unique human kinases [5]; [17]): 29.9% | % Enzyme Activity (relative to DMSO controls) (382 unique human kinases [6]): 99.12% | remaining activity at 10 µM (382 unique human kinases [6]): 101% | % Enzyme Activity (relative to DMSO controls) (382 unique human kinases [7]): 91.98% | remaining activity at 10 µM (382 unique human kinases [7]): 93.3% | % Enzyme Activity (relative to DMSO controls) (382 unique human kinases [8]): 102.69% | remaining activity at 10 µM (382 unique human kinases [8]): 103%

CC(C)c1cc(-c2n[nH]c(=O)n2-c2ccc3c(ccn3C)c2)c(O)cc1O [Ganetespib (STA9090)]
remaining activity at 10 µM (382 unique human kinases [9]): 74.7% | remaining activity at 10 µM (382 unique human kinases [10]): 67.1% | remaining activity at 10 µM (382 unique human kinases [11]): 97.3% | remaining activity at 10 µM (382 unique human kinases [12]): 76.6% | remaining activity at 10 µM (382 unique human kinases [13]): 125% | remaining activity at 10 µM (382 unique human kinases [14]): 72.8% | remaining activity at 10 µM (382 unique human kinases [15]): 82.7% | remaining activity at 10 µM (382 unique human kinases [16]): 88%

CCNC(=O)c1noc(-c2cc(C(C)C)c(O)cc2O)c1-c1ccc(CN2CCOCC2)cc1 [Luminespib (AUY-922)]
% Enzyme Activity (relative to DMSO controls) (382 unique human kinases [9]): 105.20% | remaining activity at 10 µM (382 unique human kinases [9]): 106% | % Enzyme Activity (relative to DMSO controls) (382 unique human kinases [10]): 94.13% | remaining activity at 10 µM (382 unique human kinases [10]): 94.8% | % Enzyme Activity (relative to DMSO controls) (382 unique human kinases [11]): 74.72% | remaining activity at 10 µM (382 unique human kinases [11]): 76.4% | % Enzyme Activity (relative to DMSO controls) (382 unique human kinases [12]): 100.31% | remaining activity at 10 µM (382 unique human kinases [12]): 102% | % Enzyme Activity (relative to DMSO controls) (382 unique human kinases [13]): 117.92% | remaining activity at 10 µM (382 unique human kinases [13]): 120% | % Enzyme Activity (relative to DMSO controls) (382 unique human kinases [14]): 89.83% | remaining activity at 10 µM (382 unique human kinases [14]): 89.9% | % Enzyme Activity (relative to DMSO controls) (382 unique human kinases [15]): 102.56% | remaining activity at 10 µM (382 unique human kinases [15]): 103% | % Enzyme Activity (relative to DMSO controls) (382 unique human kinases [16]): 107.24% | remaining activity at 10 µM (382 unique human kinases [16]): 108%

CC(C)c1cc(-c2n[nH]c(=O)n2-c2ccc3c(ccn3C)c2)c(O)cc1O [Ganetespib]
remaining activity at 10 µM (382 unique human kinases [1]): 33.8% | remaining activity at 10 µM (382 unique human kinases [2]): 43.6% | remaining activity at 10 µM (382 unique human kinases [3]): 106% | remaining activity at 10 µM (382 unique human kinases [4]): 98.3% | remaining activity at 1 µM (382 unique human kinases [5]; compound 1 uM, read-out: % Enzyme Activity (relative to DMSO controls)): 26.8% | remaining activity at 10 µM (382 unique human kinases [5]; [17]): 6.83% | remaining activity at 10 µM (382 unique human kinases [6]): 141% | remaining activity at 10 µM (382 unique human kinases [7]): 92.2% | remaining activity at 10 µM (382 unique human kinases [8]): 93.1%
